pIC50: −log10 of the molar value.
Experiments:
[1] = target: hCRTH2 receptor (Homo sapiens (Human), UniProt Q9Y5Y4); assay: hCRTH2 receptor membranes radioligand (3H-PGD2) displacement assay; assay type: binding; conditions: 3H-PGD2 radioligand displacement, HEK293-hCRTH2 membranes
Procedure, shortened: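 HEK293-hCRTH2 membranes, 20 μg/well; 3H-PGD2 added at 2.5 nM; binding buffer 50 mM Tris, 10 mM MnCl2, 1 mM EDTA, pH 7.0; 90 min RT; GF/C filtration, scintillation count. Nonspecific binding: PGD2 at […].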

[2] = system: eosinophils; assay: Eosinophil shape change assay with human plasma; assay type: cell-based; conditions: human plasma (50%), PGD2 100 nM activation, antagonistic activity
Source text: Eosinophil Shape Change Assay with Human Plasma
After obtaining informed consent, blood samples were drawn by venipuncture according to the protocol approved by the ethics committee of Basel, Switzerland. Polymorphonuclear leukocytes (containing eosinophils, basophils and neutrophils) were isolated using the Polymorphprep™ method (Axis-Shield). […] The polymorphonuclear cell fraction was harvested and depleted for erythrocytes by hypotonic saline lysis.
The polymorphonuclear cells were resuspended in assay buffer (1×PBS with Ca^2+/Mg^2+ supplemented with 0.1% BSA, 10 mM HEPES, and 10 mM Glucose, pH 7.4) at 5×10^6 cells/ml and stained with anti-CD49d-APC ((APC=Allophycocyanin) for 1 hour at RT. Test compounds, at various concentrations, were preincubated 10 min in human plasma (anticoagulated with a thrombin inhibitor). Then, human plasma was added to the polymorphonuclear cells to 50% of final assay volume with polymorphonuclear cells at 4×10^6 cells/ml. After incubation for 10 minutes at 37° C., the polymorphonuclear cells were activated for 5 min at 37° C. by addition of PGD2 at 100 nM final concentration. Activation was stopped by addition of 0.5 ml paraformaldehyde (1%).
Immediately after fixation with paraformaldehyde, the samples were analyzed by FACSCanto flow cytometer (BD Biosciences) and target cells were identified by their forward-scatter (FSC) and side-scatter (SSC) characteristics. Eosinophils were identified by the anti-CD49d-APC signal and their characteristic side-scatter (SSC) profile. Shape change responses, indicative of eosinophil activation, were quantified as the percent of cells with an increased forward-scatter.

Chain of hCRTH2 receptor (Q9Y5Y4 whole entry): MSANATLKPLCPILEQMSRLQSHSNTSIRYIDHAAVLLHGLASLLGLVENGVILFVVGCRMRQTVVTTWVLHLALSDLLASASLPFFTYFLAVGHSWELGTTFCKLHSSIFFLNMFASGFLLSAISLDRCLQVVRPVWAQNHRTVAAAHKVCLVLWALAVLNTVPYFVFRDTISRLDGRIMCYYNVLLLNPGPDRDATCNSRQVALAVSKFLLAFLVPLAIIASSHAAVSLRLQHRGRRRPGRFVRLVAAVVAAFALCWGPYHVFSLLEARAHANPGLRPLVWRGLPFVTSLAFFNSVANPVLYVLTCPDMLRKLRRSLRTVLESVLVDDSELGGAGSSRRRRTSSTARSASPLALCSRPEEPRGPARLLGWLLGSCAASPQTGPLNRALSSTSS

pIC50 [1] | pIC50 ([2]; Homo sapiens, Eosinophil) | pIC50 [2] | Compound
8.09 | 8.00 |  | CCOc1ccc(CC(=O)O)cc1-c1ccc(F)c2c1CN(C(=O)CC1OCCc3ccccc31)CC2 (racemic) [Example 224]
7.89 | 7.37 |  | CCOc1ccc(CC(=O)O)cc1-c1ccc(F)c2c1CN(C(=O)CC1CCOc3ccccc31)CC2 (racemic) [Example 226]
 | 7.42 |  | CCOc1ccc(CC(=O)O)cc1-c1ccc(F)c2c1CN(C(=O)CC1COc3ccccc31)CC2 (racemic) [Example 227]
 | 8.10 |  | CCOc1ccc(CC(=O)O)cc1-c1ccc(F)c2c1CN(C(=O)CC1COCc3ccccc31)CC2 (racemic) [Example 228]
 | 7.51 |  | COc1ccc(CC(=O)O)cc1-c1ccc(F)c2c1CN(C(=O)CC1CC(C)(C)Oc3ccccc31)CC2 (racemic) [Example 240]
7.69 | 7.04 |  | COc1ccc(CC(=O)O)cc1-c1ccc(F)c2c1CN(C(=O)CC1CCOc3cc(F)ccc31)CC2 (racemic) [Example 243]
8.66 | 7.46 |  | COc1ccc(CC(=O)O)cc1-c1ccc(F)c2c1CN(C(=O)CC1OCCc3ccccc31)CC2 (racemic) [Example 257]
8.85 | 7.25 |  | COc1ccc(CC(=O)O)cc1-c1ccc(F)c2c1CN(C(=O)CC1CCc3ccccc3C1)CC2 (racemic) [Example 260]
8.51 | 7.07 |  | COc1ccc(CC(=O)O)cc1-c1ccc(F)c2c1CN(C(=O)CC1CCc3ccccc31)CC2 (racemic) [Example 261]
8.08 | 7.18 |  | COc1ccc(CC(=O)O)cc1-c1ccc(F)c2c1CN(C(=O)CC1CCOc3ccccc31)CC2 (racemic) [Example 262]
8.31 | 7.19 |  | COc1ccc(CC(=O)O)cc1-c1ccc(F)c2c1CN(C(=O)CC1CCCc3ccccc31)CC2 (racemic) [Example 263]
7.65 | 7.04 |  | COc1ccc(CC(=O)O)cc1-c1ccc(F)c2c1CN(C(=O)CC1COCc3ccccc31)CC2 (racemic) [Example 271]
 | 7.55 |  | COc1cc(CC(=O)O)ccc1-c1ccc(F)c2c1CN(C(=O)CC1CCOc3ccccc31)CC2 (racemic) [Example 359]
 | 7.30 |  | COc1cc(CC(=O)O)ccc1-c1ccc(F)c2c1CN(C(=O)CC1CCOc3ccccc31)CC2 (stereo not shown) [Example 200, {4-[2-(2-Chroman-4-yl-acetyl)-5-fluoro-1,2,3,4-tetrahydro-isoquinolin-8-yl]-3-methoxy-phenyl}-acetic acid]
 |  | 7.51 | COc1cc(CC(=O)O)ccc1-c1ccc(F)c2c1CN(C(=O)CC1CCOc3ccccc31)CC2 (stereo not shown) [Example 201, {4-[2-(2-Chroman-4-yl-acetyl)-5-fluoro-1,2,3,4-tetrahydro-isoquinolin-8-yl]-3-methoxy-phenyl}-acetic acid]
 |  | 7.82 | CCOc1ccc(CC(=O)O)cc1-c1ccc(F)c2c1CN(C(=O)CC1COc3ccccc31)CC2 (stereo not shown) [Example 207, {3-[2-(2-2,3-Dihydro-benzofuran-3-yl-acetyl)-5-fluoro-1,2,3,4-tetrahydro-isoquinolin-8-yl]-4-ethoxy-phenyl}-acetic acid]
 |  | 7.38 | CCOc1ccc(CC(=O)O)cc1-c1ccc(F)c2c1CN(C(=O)CC1COc3ccccc31)CC2 (stereo not shown) [Example 208, {3-[2-(2-2,3-Dihydro-benzofuran-3-yl-acetyl)-5-fluoro-1,2,3,4-tetrahydro-isoquinolin-8-yl]-4-ethoxy-phenyl}-acetic acid]
 | 7.89 |  | CCOc1ccc(CC(=O)O)cc1-c1ccc(F)c2c1CN(C(=O)CC1COCc3ccccc31)CC2 (stereo not shown) [Example 209, {4-Ethoxy-3-[5-fluoro-2-(2-isochroman-4-yl-acetyl)-1,2,3,4-tetrahydro-isoquinolin-8-yl]-phenyl}-acetic acid]
 |  | 7.96 | CCOc1ccc(CC(=O)O)cc1-c1ccc(F)c2c1CN(C(=O)CC1COCc3ccccc31)CC2 (stereo not shown) [Example 210, {4-Ethoxy-3-[5-fluoro-2-(2-isochroman-4-yl-acetyl)-1,2,3,4-tetrahydro-isoquinolin-8-yl]-phenyl}-acetic acid]

Second part, the compound before the results:

Compound | pIC50 [1] | pIC50 ([2]; Homo sapiens, Eosinophil) | pIC50 [2]
COc1ccc(CC(=O)O)cc1-c1ccc(F)c2c1CN(C(=O)[C@@H]1C[C@H]1c1ccc(F)cc1)CC2 (racemic) [Example 1, (±)-(3-{5-Fluoro-2-[trans-2-(4-fluoro-phenyl)-cyclopropanecarbonyl]-1,2,3,4-tetrahydro-isoquinolin-8-yl}-4-methoxy-phenyl)-acetic acid] | 8.70 | 8.10 | 
COc1ccc(CC(=O)O)cc1-c1ccc(F)c2c1CN(C(=O)[C@@H]1C[C@H]1c1ccccc1F)CC2 (racemic) [Example 5, (±)-(3-{5-Fluoro-2-[trans-2-(2-fluoro-phenyl)-cyclopropanecarbonyl]-1,2,3,4-tetrahydro-isoquinolin-8-yl}-4-methoxy-phenyl)-acetic acid] | 8.44 | 7.92 | 
COc1ccc(CC(=O)O)cc1-c1ccc(F)c2c1CCN(C(=O)[C@@H]1C[C@H]1c1ccccc1)CC2 (racemic) [Example 36, (±)-{3-[9-Fluoro-3-(trans-2-phenyl-cyclopropanecarbonyl)-2,3,4,5-tetrahydro-1H-benzo[d]azepin-6-yl]-4-methoxy-phenyl}-acetic acid] | 7.70 | < 6.00 | 
COc1ccc(CC(=O)O)cc1-c1ccc(F)c2c1CN(C(=O)[C@@H]1C[C@H]1c1ccccc1)C2 (racemic) [Example 37, (±)-{3-[7-Fluoro-2-(trans-2-phenyl-cyclopropanecarbonyl)-2,3-dihydro-1H-isoindol-4-yl]-4-methoxy-phenyl}-acetic acid] |  | 6.54 | 
COc1ccc(CC(=O)O)cc1-c1ccc(F)c2c1CN(C(=O)[C@@H]1C[C@H]1c1cccc(F)c1)CC2 (racemic) [Example 48, (±)-(3-{5-Fluoro-2-[trans-2-(3-fluoro-phenyl)-cyclopropanecarbonyl]-1,2,3,4-tetrahydro-isoquinolin-8-yl}-4-methoxy-phenyl)-acetic acid] |  | 7.38 | 
COc1ccc(CC(=O)O)cc1-c1ccc(F)c2c1CN(C(=O)[C@@H]1C[C@H]1c1ccccc1)CC2 (racemic) [Example 60, (±)-{3-[5-Fluoro-2-(trans-2-phenyl-cyclopropanecarbonyl)-1,2,3,4-tetrahydro-isoquinolin-8-yl]-4-methoxy-phenyl}-acetic acid] | 8.58 | 7.89 | 
COc1ccc(CC(=O)O)cc1-c1ccc(C(F)(F)F)c2c1CN(C(=O)[C@@H]1C[C@H]1c1ccccc1)CC2 (racemic) [Example 83, (±)-{4-Methoxy-3-[2-(trans-2-phenyl-cyclopropanecarbonyl)-5-trifluoromethyl-1,2,3,4-tetrahydro-isoquinolin-8-yl]-phenyl}-acetic acid] | 7.58 | < 6.00 | 
CCOc1cc(CC(=O)O)ccc1-c1ccc(F)c2c1CN(C(=O)CC1OCCc3ccccc31)CC2 (racemic) [Example 229] | 9.15 | 7.82 | 
CCOc1cc(CC(=O)O)ccc1-c1ccc(F)c2c1CN(C(=O)CC1COc3ccccc31)CC2 (racemic) [Example 235] | 9.52 | 7.70 | 
CCOc1cc(CC(=O)O)ccc1-c1ccc(F)c2c1CN(C(=O)CC1CCOc3ccccc31)CC2 (racemic) [Example 236] | 9.10 | 7.92 | 
COc1ccc(CC(=O)O)cc1-c1ccc(F)c2c1CN(C(=O)CN(C)C(c1ccccc1)c1ccc(Cl)cc1)CC2 (racemic) [Example 253] | 7.97 | 6.40 | 
COc1ccc(CC(=O)O)cc1-c1ccc(F)c2c1CN(C(=O)CC(C)c1ccccn1)CC2 (racemic) [Example 265] | 8.11 | 7.01 | 
CCOc1ccc(CC(=O)O)cc1-c1ccc(F)c2c1CN(C(=O)CC(C)c1ccc(F)cc1)CC2 (racemic) [Example 278] | 8.41 | 7.72 | 
CCOc1ccc(CC(=O)O)cc1-c1ccc(F)c2c1CN(C(=O)CC(C)c1cccc(F)c1)CC2 (racemic) [Example 279] | 8.16 | 7.35 | 
CCOc1ccc(CC(=O)O)cc1-c1ccc(F)c2c1CN(C(=O)CC(C)c1cccc(C)n1)CC2 (racemic) [Example 328] | 8.74 | 7.82 | 
CCOc1ccc(CC(=O)O)cc1-c1ccc(F)c2c1CN(C(=O)[C@@H]1C[C@H]1c1ccccn1)CC2 (racemic) [Example 330] | 9.22 | 7.82 | 
CCOc1ccc(CC(=O)O)cc1-c1ccc(F)c2c1CN(C(=O)CC1COc3ccccc3C1)CC2 (racemic) [Example 332] | 7.93 | 7.82 | 
COc1ccc(CC(=O)O)cc1-c1ccc(F)c2c1CN(C(=O)[C@@H]1C[C@H]1c1cccc(F)c1)CC2 [Example 65, (3-{5-Fluoro-2-[(1R,2R)-2-(3-fluoro-phenyl)-cyclopropanecarbonyl]-1,2,3,4-tetrahydro-isoquinolin-8-yl}-4-methoxy-phenyl)-acetic acid] |  | 8.00 | 

Reference: patent US9255090B2, “Heterocyclyl derivatives and their use as prostaglandin D2 receptor modulators” (Actelion Pharmaceuticals Ltd., priority 2012, dated 2016)
